From patent US7880007B2, “Bicyclic substituted phenyl piperidine modulators of muscarinic receptors” (Vertex Pharmaceuticals Incorporated, priority 2004, dated 2011)

What was measured:
Format in all cases: cell-based
M1 muscarinic receptor = molecular target: T1, M1 muscarinic receptor (Homo sapiens, UniProt P11229); experiment: Functional mobilization of intracellular calcium (FLIPR), M1-CHO cells; conditions: for Emax: 100% efficacy = maximum response obtained with the Carbachol control; for M1 Activity: M1-CHO cells, calcium mobilization (FLIPR)
T1 construct: expressed in transfected cells; host or cells: CHO (M1-CHO)
T1 sequence (P11229 1-460): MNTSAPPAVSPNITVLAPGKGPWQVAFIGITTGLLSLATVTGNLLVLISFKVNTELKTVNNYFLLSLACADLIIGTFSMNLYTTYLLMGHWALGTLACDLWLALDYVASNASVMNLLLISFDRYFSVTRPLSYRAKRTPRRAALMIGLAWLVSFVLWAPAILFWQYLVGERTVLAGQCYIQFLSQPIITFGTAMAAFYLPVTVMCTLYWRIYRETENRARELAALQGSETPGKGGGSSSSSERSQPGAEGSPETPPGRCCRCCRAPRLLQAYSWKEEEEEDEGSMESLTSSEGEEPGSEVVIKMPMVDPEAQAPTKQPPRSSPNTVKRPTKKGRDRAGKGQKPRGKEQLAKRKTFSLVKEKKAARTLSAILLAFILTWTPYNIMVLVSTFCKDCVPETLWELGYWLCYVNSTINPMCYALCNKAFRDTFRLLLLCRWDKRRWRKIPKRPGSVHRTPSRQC
Method in brief: (§1)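 FLIPR fluorescence (ex 488, em 540 nm) recorded 60 sec after compound addition to dye-loaded CHO cells. Agonist mode: compound alone. Antagonist mode: 15 min compound pre-incubation, then carbachol at EC80, or co-application. Efficacy expressed as % of maximal carbachol response.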

M2 muscarinic receptor = molecular target: T2, M2 muscarinic receptor (Homo sapiens, UniProt P08172); experiment: Functional mobilization of intracellular calcium (FLIPR), M2-CHO cells; conditions: for Emax: 100% efficacy = maximum response obtained with the Carbachol control; for M2 Activity: M2-CHO cells, calcium mobilization (FLIPR)
T2 construct: expressed in transfected cells; host or cells: CHO (M2-CHO)
T2 sequence (P08172 1-466): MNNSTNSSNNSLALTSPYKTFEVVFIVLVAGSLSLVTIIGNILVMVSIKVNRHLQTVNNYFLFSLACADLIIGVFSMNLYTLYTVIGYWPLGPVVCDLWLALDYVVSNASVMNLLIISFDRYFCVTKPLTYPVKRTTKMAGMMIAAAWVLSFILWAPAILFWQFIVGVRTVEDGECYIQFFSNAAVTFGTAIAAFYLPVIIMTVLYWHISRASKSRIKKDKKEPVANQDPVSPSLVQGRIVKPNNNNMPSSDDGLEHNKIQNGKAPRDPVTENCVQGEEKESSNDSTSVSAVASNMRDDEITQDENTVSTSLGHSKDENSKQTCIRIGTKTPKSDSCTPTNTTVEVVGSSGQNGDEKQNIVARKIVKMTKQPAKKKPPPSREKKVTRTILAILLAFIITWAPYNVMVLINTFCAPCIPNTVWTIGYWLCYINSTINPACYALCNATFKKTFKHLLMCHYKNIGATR
Method in brief: as §1

M3 muscarinic receptor = molecular target: T3, M3 muscarinic receptor (Homo sapiens, UniProt P20309); experiment: Functional mobilization of intracellular calcium (FLIPR), M3-CHO cells; conditions: for Emax: 100% efficacy = maximum response obtained with the Carbachol control; for M3 Activity: M3-CHO cells, calcium mobilization (FLIPR)
T3 construct: expressed in transfected cells; host or cells: CHO (M3-CHO)
Method in brief: as §1

M4 muscarinic receptor = molecular target: T4, M4 muscarinic receptor (Homo sapiens, UniProt P08173); experiment: Functional mobilization of intracellular calcium (FLIPR), M4-CHO cells; conditions: for Emax: 100% efficacy = maximum response obtained with the Carbachol control; for M4 Activity: M4-CHO cells, calcium mobilization (FLIPR)
T4 construct: expressed in transfected cells; host or cells: CHO (M4-CHO)
T4 sequence (P08173 1-479): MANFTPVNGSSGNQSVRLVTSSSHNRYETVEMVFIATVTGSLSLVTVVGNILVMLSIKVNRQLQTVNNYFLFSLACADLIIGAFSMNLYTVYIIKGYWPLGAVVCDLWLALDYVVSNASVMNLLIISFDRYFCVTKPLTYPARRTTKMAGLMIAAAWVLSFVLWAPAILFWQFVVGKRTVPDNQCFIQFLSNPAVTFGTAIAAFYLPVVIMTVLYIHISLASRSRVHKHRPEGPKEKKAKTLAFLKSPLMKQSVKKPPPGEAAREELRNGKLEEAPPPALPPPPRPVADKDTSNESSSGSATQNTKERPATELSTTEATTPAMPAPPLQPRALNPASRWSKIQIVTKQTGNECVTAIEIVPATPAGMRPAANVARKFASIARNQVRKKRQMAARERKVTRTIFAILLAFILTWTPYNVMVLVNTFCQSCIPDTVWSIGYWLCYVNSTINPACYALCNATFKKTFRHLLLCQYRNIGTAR
Method in brief: as §1

T3 sequence (P20309 whole entry): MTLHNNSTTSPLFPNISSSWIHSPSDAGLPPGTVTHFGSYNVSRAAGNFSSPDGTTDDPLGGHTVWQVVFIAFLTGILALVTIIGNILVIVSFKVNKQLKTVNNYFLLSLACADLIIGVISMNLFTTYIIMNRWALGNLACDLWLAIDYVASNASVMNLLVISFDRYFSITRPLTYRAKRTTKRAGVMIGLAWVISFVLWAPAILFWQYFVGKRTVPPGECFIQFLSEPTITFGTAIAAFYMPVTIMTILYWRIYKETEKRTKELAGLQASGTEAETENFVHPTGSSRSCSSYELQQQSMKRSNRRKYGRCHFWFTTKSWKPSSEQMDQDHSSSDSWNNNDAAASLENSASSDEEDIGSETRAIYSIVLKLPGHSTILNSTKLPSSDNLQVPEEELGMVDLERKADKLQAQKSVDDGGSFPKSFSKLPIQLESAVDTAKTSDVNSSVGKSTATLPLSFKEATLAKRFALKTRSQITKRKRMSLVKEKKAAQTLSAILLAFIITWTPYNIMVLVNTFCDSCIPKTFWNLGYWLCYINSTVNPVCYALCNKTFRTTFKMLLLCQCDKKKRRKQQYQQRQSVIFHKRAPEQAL

SMILES	Emax (M1 muscarinic receptor) [%]	M1 Activity (M1 muscarinic receptor)	Emax (M2 muscarinic receptor) [%]	M2 Activity (M2 muscarinic receptor)	Emax (M3 muscarinic receptor) [%]	M3 Activity (M3 muscarinic receptor)	Emax (M4 muscarinic receptor) [%]	M4 Activity (M4 muscarinic receptor)
CCOC(=O)N1CCC(CN2CCC(c3cc(C#N)ccc3OC)CC2)CC1 [Compound 264]	25 to 100	+++ (activity was measured to be less than 1.0 μM)	< 25	+ (activity was measured to be greater than 5.0 μM)	< 25	+ (activity was measured to be greater than 5.0 μM)	25 to 100	+++ (activity was measured to be less than 1.0 μM)
COc1ccccc1C1CCN(C2CCC(C)C2)CC1 (stereo not drawn) [Compound 265]	25 to 100	+ (activity was measured to be greater than 5.0 μM)	< 25	+ (activity was measured to be greater than 5.0 μM)	< 25	+ (activity was measured to be greater than 5.0 μM)	25 to 100	+++ (activity was measured to be less than 1.0 μM)
COc1ccccc1C1CCN(C2CCN(C(C)=O)CC2)CC1 [Compound 266]	< 25	+ (activity was measured to be greater than 5.0 μM)	< 25	+ (activity was measured to be greater than 5.0 μM)	< 25	+ (activity was measured to be greater than 5.0 μM)	25 to 100	++ (activity was measured to be from 1.0 μM to 5.0 μM)
COc1ccc(-c2ccc(F)cc2)cc1C1CCN([C@H]2C[C@H]3CC[C@H]2C3)CC1 [Compound 267]	25 to 100	+ (activity was measured to be greater than 5.0 μM)	< 25	+ (activity was measured to be greater than 5.0 μM)	< 25	+ (activity was measured to be greater than 5.0 μM)	25 to 100	+ (activity was measured to be greater than 5.0 μM)
COc1ccc(-c2ccc(S(C)(=O)=O)cc2)cc1C1CCN(C2CCCCC2)CC1 [Compound 268]	25 to 100	+ (activity was measured to be greater than 5.0 μM)	25 to 100	+ (activity was measured to be greater than 5.0 μM)	< 25	+ (activity was measured to be greater than 5.0 μM)	25 to 100	++ (activity was measured to be from 1.0 μM to 5.0 μM)
O=C(COc1ccccc1C1CCN([C@H]2C[C@H]3CC[C@H]2C3)CC1)c1ccccc1 [Compound 269]	25 to 100	+ (activity was measured to be greater than 5.0 μM)	< 25	+ (activity was measured to be greater than 5.0 μM)	< 25	+ (activity was measured to be greater than 5.0 μM)	25 to 100	+++ (activity was measured to be less than 1.0 μM)
CCOC(=O)N1C2CCC1CC(N1CCC(c3cc(-c4ccc(C(=O)NC)cc4)ccc3OC)CC1)C2 (stereo not drawn) [Compound 270]	25 to 100	+++ (activity was measured to be less than 1.0 μM)	< 25	+ (activity was measured to be greater than 5.0 μM)	< 25	+ (activity was measured to be greater than 5.0 μM)	25 to 100	+++ (activity was measured to be less than 1.0 μM)
CCOC(=O)N1CCC(CN2CCC(c3ccccc3OC(F)(F)F)CC2)CC1 [Compound 271]	25 to 100	+++ (activity was measured to be less than 1.0 μM)	25 to 100	++ (activity was measured to be from 1.0 μM to 5.0 μM)	< 25	+ (activity was measured to be greater than 5.0 μM)	25 to 100	+++ (activity was measured to be less than 1.0 μM)
CCOC(=O)N1CCC(CN2CCC(c3cc(-c4ccc(C(C)(C)C#N)cc4)ccc3OC)CC2)CC1 [Compound 272]	25 to 100	+++ (activity was measured to be less than 1.0 μM)	< 25	+ (activity was measured to be greater than 5.0 μM)	< 25	+ (activity was measured to be greater than 5.0 μM)	25 to 100	+++ (activity was measured to be less than 1.0 μM)
COc1ccc(Cl)cc1C1CCN(C2CCC(=O)CC2)CC1 [Compound 273, 4-(4-(5-chloro-2-methoxyphenyl)piperidin-1-yl)cyclohexanone]	25 to 100	+ (activity was measured to be greater than 5.0 μM)	25 to 100	++ (activity was measured to be from 1.0 μM to 5.0 μM)	< 25	+ (activity was measured to be greater than 5.0 μM)	25 to 100	+++ (activity was measured to be less than 1.0 μM)
Fc1cccc(-c2ccccc2C2CCN([C@H]3C[C@H]4CC[C@H]3C4)CC2)c1 [Compound 274]	< 25	+ (activity was measured to be greater than 5.0 μM)	< 25	+ (activity was measured to be greater than 5.0 μM)	< 25	+ (activity was measured to be greater than 5.0 μM)	25 to 100	++ (activity was measured to be from 1.0 μM to 5.0 μM)
COc1ccc(-c2ccc(S(C)(=O)=O)cc2)cc1C1CCN(C2CCCC2)CC1 [Compound 275]	25 to 100	+ (activity was measured to be greater than 5.0 μM)	25 to 100	+ (activity was measured to be greater than 5.0 μM)	< 25	+ (activity was measured to be greater than 5.0 μM)	25 to 100	++ (activity was measured to be from 1.0 μM to 5.0 μM)
Fc1cccc(C2CCN(C3C[C@H]4CC[C@H]3C4)CC2)c1F (stereo partly drawn) [Compound 276]	25 to 100	+ (activity was measured to be greater than 5.0 μM)	< 25	+ (activity was measured to be greater than 5.0 μM)	< 25	+ (activity was measured to be greater than 5.0 μM)	25 to 100	++ (activity was measured to be from 1.0 μM to 5.0 μM)
COc1ccc(-c2cccc(C)c2)cc1C1CCN([C@H]2C[C@H]3CC[C@H]2C3)CC1 [Compound 277]	< 25	+ (activity was measured to be greater than 5.0 μM)	< 25	+ (activity was measured to be greater than 5.0 μM)	< 25	+ (activity was measured to be greater than 5.0 μM)	< 25	+ (activity was measured to be greater than 5.0 μM)
COc1ccc(Cl)cc1C1CCN(CC2CC3CCC2CC3)CC1 (stereo not drawn) [Compound 280]	< 25	+ (activity was measured to be greater than 5.0 μM)	< 25	+ (activity was measured to be greater than 5.0 μM)	< 25	+ (activity was measured to be greater than 5.0 μM)	25 to 100	++ (activity was measured to be from 1.0 μM to 5.0 μM)
